Measurements published in patent US20220340983A1, “SYSTEMS AND ASSAYS FOR IDENTIFYING PU.1 INHIBITORS” (Massachustts Institute of Technology, priority 2019, published 2022).

Assays:
[1] = tested on: PU.1 dependent gene expression; experiment: RT-qPCR of mRNA levels in BV2 PU.1-Luciferase cells (validation round 3); format: cell-based, mouse; details: 2-day treatment
[2] = tested on: iPS and ES-microglia; experiment: Average cell size (Vybrant DiI-positive surface area per Hoechst-positive cell) in microglia; format: cell-based, human; details: A11 alone ≤20 nM
Description: (§1) Top row: Effect of a 2-day treatment with DPBS (10 μL/mL), IFNγ (25 ng/mL), TNFα (25 ng/mL), TGFβ (25 ng/mL), IL1β (25 ng/mL), LPS (25 ng/mL), ATP (100 nM), CD200 (100 ng/mL), IFNα (25 ng/mL), IL12 (5 ng/mL), CX3CL1 (100 ng/mL), CCL5 (100 ng/mL), PMA (10 ng/mL), IFNβ (10 ng/mL), IL33 (10 ng/mL), and IL4 (100 ng/mL). n=52 for DPBS, n=9 for all other inflammatory molecules, except IL33 where n=3. Bottom row: effect after co-application with A11 (20 nM). Scale bar 10 μm. […] Student's unpaired, two sided t-test, ****P≤0.0001, ***P≤0.001, **P≤0.01, *P≤0.05. […] Top row: An increase in number of cells per well with ≥2 BODIPY-positive structures was observed after a 2-day treatment with IFNγ (25 ng/mL), TNFα (25 ng/mL) and IL33 (10 ng/mL) as compared to DPBS treatment. […] Student's unpaired, two-sided t-test, ***P≤0.001, **P≤0.01, *P≤0.05. […] A 2-day treatment with IFNγ (25 ng/mL) caused increase in ATP levels that was reversed by A11 (20 nM) treatment in iPS (left panel) and ES-microglia (right panel). Student's unpaired, twosided t-test, **P≤0.01. […]
(§2) FIGS. 17A-17H show results from comparing the effects of multiple inflammatory molecules in iPS-microglia. […] Quantification based on total Vybrant DiI-positive surface area divided by number of Hoechst positive cells per field of view. […]

[3] = target: T1, PU.1 (Mus musculus, UniProt P17433); experiment: Luciferase assay (luminescence) in BV2 PU.1-Luciferase reporter cells; format: cell-based; details: luminescence reduction in BV2 PU.1-Luciferase cells, concentration-response, Hill's equation
T1 construct: endogenous in cells; host or cells: BV2 PU.1-Luciferase (mouse microglial BV2 with a 5xLBB-luciferase reporter integrated at ROSA26)

[4] = tested on: iPS and ES-microglia; experiment: ATP levels (CellTiter-Glo luminescence per well) in microglia; format: cell-based, human
Description: as §1, §2

## O=S(=O)(NCc1ccncc1)c1ccc(C2CCCCC2)cc1 [Compound A11]
[1]
  mRNA levels Apoe: 1.522 multiples of 1×
  mRNA levels IL1β: 0.418 multiples of 1×
  mRNA levels Lucif.: 0.376 multiples of 1×
  mRNA levels Spi1: 1.001 multiples of 1×
  mRNA levels Trem2: 2.051 multiples of 1×
  mRNA levels Tyrobp: 2.101 multiples of 1×
[2]
  average cell size versus DPBS treatment: no effects
[3]
  IC50: 2 nM
[4]; 2-day IFNγ 25 ng/mL plus A11 20 nM
  ATP levels, increase caused by IFNγ: reversed
[4]; A11 alone ≤20 nM
  amount of ATP per well: no effect
